Here are results for four molecules from patent publication EP0259014A2, “5-Deoxy-5-fluorokanamycin B derivatives and processes for the production thereof” (ZAIDAN HOJIN BISEIBUTSU KAGAKU KENKYU KAI, priority 1986, dated 1988).

Values after ≈ are worked out from the molar mass of the structure shown. Read-outs that look alike come from different tables or passages of the source.

For series [1], the system named is Staphylococcus aureus 209P. The series can be described thus: MIC, serial dilution on Mueller Hinton agar. It is filed as cell-based. Particulars: Staphylococcus aureus 209P; Mueller Hinton agar, 37°C, 18 hours; read-out: MIC.
Series [2] has as its system Staphylococcus aureus Ap01. The series can be described thus: MIC, serial dilution on Mueller Hinton agar. It counts as cell-based.
For series [3], the system named is Corynebacterium bovis 1810. As to the kind of experiment: MIC, serial dilution on Mueller Hinton agar. It counts as cell-based.
A further series concerns Escherichia coli K-12. The series can be described thus: MIC, serial dilution on Mueller Hinton agar. It is filed as cell-based.
The subject of another series is Escherichia coli K-12 R5. As to the kind of experiment: MIC, serial dilution on Mueller Hinton agar. Particulars: K12R5, 18 h. It counts as cell-based.
Series [4] has as its system Escherichia coli K-12 LA 290 R55. As to the kind of experiment: MIC, serial dilution on Mueller Hinton agar. It is filed as cell-based. Particulars: Escherichia coli, K12LA290R55, 18 h.
The test system of series [5] is Klebsiella pneumoniae 22#3038. As to the kind of experiment: MIC, serial dilution on Mueller Hinton agar. The following applies: Klebsiella pneumoniae 22#3038, resistance mechanism APH(3')-II, ANT(2"), 37°C, 18 hours. It counts as cell-based. An excerpt: The antibacterial spectra so determined of the new compounds No. 1 to No. 13 (each in the form of the free base) of this invention are as shown in Table 1 below.

In the next series the test system is Proteus rettgeri GN 311. As to the kind of experiment: MIC, serial dilution on Mueller Hinton agar. It is filed as cell-based. The following applies: Providencia rettgeri, GN311; Proteus rettgeri GN 311; Mueller Hinton agar, 37°C, 18 hours; read-out: MIC.
A further series relates to Serratia marcescens. As to the kind of experiment: MIC, serial dilution on Mueller Hinton agar. It counts as cell-based.
In another series the test system is Providencia sp. Pv 16. The series can be described thus: MIC, serial dilution on Mueller Hinton agar. It counts as cell-based.
The subject of series [6] is Pseudomonas aeruginosa A3. The series can be described thus: MIC, serial dilution on Mueller Hinton agar. It counts as cell-based. The following applies: Pseudomonas aeruginosa A3; Mueller Hinton agar, 37°C, 18 hours; read-out: MIC.
Series [7] deals with Pseudomonas aeruginosa GN 315. The series can be described thus: MIC, serial dilution on Mueller Hinton agar. It is filed as cell-based. The following applies: GN315; Pseudomonas aeruginosa GN 315, resistance mechanism AAC(6'); Mueller Hinton agar, 37°C, 18 hours; read-out: MIC.
The nature of a further series: in vivo. Particulars: mouse, iv.
The subject of another series is Bacillus subtilis PCI219. The series can be described thus: MIC, serial dilution on Mueller Hinton agar. It is filed as cell-based. The following applies: Bacillus subtilis PCI219; Mueller Hinton agar, 37°C, 18 hours; read-out: MIC.
Series [8] relates to Escherichia coli K-12 ML 1629. As to the kind of experiment: MIC, serial dilution on Mueller Hinton agar. It is filed as cell-based. Particulars: K12ML1629, Escherichia coli K-12 ML 1629, resistance mechanism APH(3')-I, 37°C, 18 hours.
A further series relates to Escherichia coli JR225. As to the kind of experiment: microbe, parasite or virus in culture. It is filed as cell-based. Particulars: Escherichia coli, JR225, 18 h.
Series [9] deals with Escherichia coli JR66/W677. The series can be described thus: microbe, parasite or virus in culture. It counts as cell-based. The following applies: JR66/W677, 18 h.
A further series has as its system Mycobacterium 607. As to the kind of experiment: MIC, serial dilution on Mueller Hinton agar. It is filed as cell-based.
Setting [10] is: Staphylococcus aureus Ap01, resistance mechanism ANT(4'), Mueller Hinton agar, 37°C, 18 hours, read-out: MIC.
Setting [11] is: Corynebacterium bovis 1810, Mueller Hinton agar, 37°C, 18 hours, read-out: MIC.
[12] abbreviates: K12, Escherichia coli K-12, Mueller Hinton agar, 37°C, 18 hours, read-out: MIC.
[13] abbreviates: Mueller Hinton agar, 37°C, 18 hours, read-out: MIC.
[14] abbreviates: SP.PV16, Providencia sp. Pv 16, resistance mechanism AAC(2'), Mueller Hinton agar, 37°C, 18 hours, read-out: MIC.
Setting [15] is: Mycobacterium 607, Mueller Hinton agar, 37°C, incubated for 40 hours, read-out: MIC.

What is called LD50 is the dose at which mortality reaches 50%. As for `NC[C@H]1O[C@H](O[C@H]2[C@H](F)[C@@H](O[C@H]3O[C@H](CO)[C@@H](O)[C@H](N)[C@H]3O)[C@H](N)C[C@@H]2N)[C@H](N)C[C@@H]1O` [Compound No. 2, 5,3'-Dideoxy-5-fluorokanamycin B], the MIC in series [1] was 0.39 µg/mL (≈ 0.831 µM); in series [2] (setting [10]), 0.39 µg/mL (≈ 0.831 µM); in series [3] (setting [11]) it was 1.56 µg/mL (≈ 3.32 µM); in the series with Escherichia coli K-12 (setting [12]), less than 0.2 µg/mL; against Escherichia coli K-12 R5 it was 25 µg/mL (≈ 53.2 µM); in series [4], 3.12 µg/mL (≈ 6.65 µM). Besides, the MIC in series [5] is 3.12 µg/mL (≈ 6.65 µM); in the series on Proteus rettgeri GN 311 it was less than 0.2 µg/mL; with Serratia marcescens (setting [13]), 6.25 µg/mL (≈ 13.3 µM); against Providencia sp. Pv 16 (Providencia, SP.PV16, 18 h), 3.12 µg/mL (≈ 6.65 µM); in series [6] it was less than 0.2 µg/mL; in [7], 50 µg/mL (≈ 106 µM). The molecule also yielded an LD50 in “in vivo” of 200 mg/kg.
In the case of `NC[C@@H]1CC[C@@H](N)[C@@H](O[C@H]2[C@H](F)[C@@H](O[C@H]3O[C@H](CO)[C@@H](O)[C@H](N)[C@H]3O)[C@H](N)C[C@@H]2N)O1` [Compound No. 4, 5,3',4'-Trideoxy-5-fluorokanamycin B], the MIC is 0.78 µg/mL (≈ 1.72 µM) in series [1]; 3.12 µg/mL (≈ 6.88 µM) in series [2] (Staphylococcus aureus, AP01, 18 h); 0.78 µg/mL (≈ 1.72 µM) in the series with Bacillus subtilis PCI219; 6.25 µg/mL (≈ 13.8 µM) in series [3] (Corynebacterium bovis, 1810, 18 h); 3.12 µg/mL (≈ 6.88 µM) in the series with Escherichia coli K-12 (Escherichia coli, K12, 18 h); 100 µg/mL (≈ 221 µM) against Escherichia coli K-12 R5. Moreover, the MIC in series [8] was 3.12 µg/mL (≈ 6.88 µM); in [4] it was 6.25 µg/mL (≈ 13.8 µM); against Escherichia coli JR225, 3.12 µg/mL (≈ 6.88 µM); in series [9] it was 3.12 µg/mL (≈ 6.88 µM); against Mycobacterium 607 (Mycobacterium, 607, 40 h) it was 6.25 µg/mL (≈ 13.8 µM); in [5] it was 6.25 µg/mL (≈ 13.8 µM). The MIC is 0.78 µg/mL (≈ 1.72 µM) in the series on Proteus rettgeri GN 311; 12.5 µg/mL (≈ 27.6 µM) with Serratia marcescens (setting [13]); 12.5 µg/mL (≈ 27.6 µM) in the series with Providencia sp. Pv 16 (setting [14]); 0.39 µg/mL (≈ 0.86 µM) in series [6]; 100 µg/mL (≈ 221 µM) in series [7]. In the series “in vivo”, this molecule had an LD50 of 140 mg/kg.
For `NCC[C@H](O)C(=O)N[C@@H]1C[C@H](N)[C@@H](O[C@H]2O[C@H](CN)[C@@H](O)C[C@H]2N)[C@H](F)[C@H]1O[C@H]1O[C@H](CO)[C@@H](O)[C@H](N)[C@H]1O` [Compound No. 9, 1-N-(4-Amino-2-(S)-hydroxybutyryl)-5,3'-dideoxy-5-fluorokanamycin B], the MIC in series [1] was 0.39 µg/mL (≈ 0.683 µM); in series [2] (setting [10]), 0.78 µg/mL (≈ 1.37 µM); in the series on Bacillus subtilis PCI219, less than 0.2 µg/mL; in series [3] (setting [11]), less than 0.2 µg/mL; in the series on Escherichia coli K-12 (setting [12]), less than 0.2 µg/mL; against Escherichia coli K-12 R5 it was 3.12 µg/mL (≈ 5.47 µM). Moreover, the MIC in series [8] is 0.78 µg/mL (≈ 1.37 µM); in series [4], 0.78 µg/mL (≈ 1.37 µM); with Escherichia coli JR225 it was 0.39 µg/mL (≈ 0.683 µM); in [9] it was 0.78 µg/mL (≈ 1.37 µM); with Mycobacterium 607 (setting [15]) it was 0.78 µg/mL (≈ 1.37 µM); in series [5], 1.56 µg/mL (≈ 2.73 µM). Besides, the MIC was less than 0.2 µg/mL in the series with Proteus rettgeri GN 311; 3.12 µg/mL (≈ 5.47 µM) in the series with Serratia marcescens (18 h); 0.78 µg/mL (≈ 1.37 µM) with Providencia sp. Pv 16 (setting [14]); 0.39 µg/mL (≈ 0.683 µM) in [6]; 6.25 µg/mL (≈ 11 µM) in series [7]. In the series “in vivo”, this molecule displayed an LD50 of 150 mg/kg.
For the molecule `NCC[C@H](O)C(=O)N[C@@H]1C[C@H](N)[C@@H](O[C@H]2O[C@H](CN)C[C@H](O)[C@H]2N)[C@H](F)[C@H]1O[C@H]1O[C@H](CO)[C@@H](O)[C@H](N)[C@H]1O` [Compound No. 10, 1-N-(4-Amino-2-(S)-hydroxybutyryl)-5,4'-dideoxy-5-fluorokanamycin B], the MIC in series [1] is 0.39 µg/mL (≈ 0.683 µM); in [2] (setting [10]) it was 0.39 µg/mL (≈ 0.683 µM); with Bacillus subtilis PCI219, 0.39 µg/mL (≈ 0.683 µM); in series [3] (setting [11]), less than 0.2 µg/mL; in the series on Escherichia coli K-12 (setting [12]) it was 0.2 µg/mL (≈ 0.35 µM); with Escherichia coli K-12 R5, 12.5 µg/mL (≈ 21.9 µM). Moreover, the MIC in [8] is 0.78 µg/mL (≈ 1.37 µM); in series [4], 1.56 µg/mL (≈ 2.73 µM); against Escherichia coli JR225 it was 0.78 µg/mL (≈ 1.37 µM); in series [9] it was 1.56 µg/mL (≈ 2.73 µM); in the series with Mycobacterium 607 (setting [15]), 6.25 µg/mL (≈ 11 µM); in [5], 3.12 µg/mL (≈ 5.47 µM). Further, the MIC came out at 0.2 µg/mL (≈ 0.35 µM) with Proteus rettgeri GN 311; 3.12 µg/mL (≈ 5.47 µM) against Serratia marcescens (18 h); 0.78 µg/mL (≈ 1.37 µM) in the series with Providencia sp. Pv 16 (setting [14]); 0.39 µg/mL (≈ 0.683 µM) in series [6]; 6.25 µg/mL (≈ 11 µM) in series [7].
